Results taken from patent US6071896A, “Suppression of thromboxane levels by percutaneous administration of aspirin” (Gundersen Clinic, Ltd., priority 1998, dated 2000).
“Also recorded” adds a separate entry of the source.

Legend:
PGI2 synthesis = conditions: cited from earlier work
thromboxane synthesis = conditions: cited from earlier work
[1] = Plasma aspirin levels following oral aspirin; format: in vivo; conditions: human
Protocol: (§1) The preservation of vascular cyclooxygenase is consistent with the low bioavailability of the dermal aspirin. Plasma aspirin and salicylate were determined using a highly sensitive assay that can measure levels of <0.1 ng/ml. Following oral aspirin 325 mg or 162 mg, peak plasma aspirin levels were 2.0 and 1.3 ug/ml, respectively. In contrast, following dermal aspirin, plasma levels peaked at 237±114 ng/ml and plasma salicylate peaked at 788±114 ng/ml.

TXA2 biosynthesis = assay: Urinary 2,3-dinor-TXB2 (TX-M) excretion, dermal aspirin, Example 2; format: in vivo, human
Protocol: (§2) Only healthy male and female volunteers were studied. The subjects were asked to avoid aspirin and any other cyclooxygenase inhibitors for the 10 days before and throughout the period of investigation. Aspirin (acetyl salicylic acid, USP) powder was dissolved in propylene glycol and either isopropyl alcohol or ethanol (1.7:1 v/v) to a final concentration of 94 mg/ml. […] The aspirin preparation was made daily immediately prior to its application Volunteers attended the clinic where the preparation was applied and were asked not to wash the area for at least 12 hours. The aspirin solution was applied to the forearm and upper arm over a 15 min interval. Volunteers received aspirin 250 mg (n=4), aspirin 750 mg (n=6) or vehicle (n=6) for 10 days and were followed for 8 days following drug withdrawal. The volunteers were aged 31-56 years, with equal numbers of male and females in each treatment group.
(§3) Blood without anticoagulant was obtained for serum TXB2, the stable metabolite of TXA2, prior to and at intervals during and following aspirin administration. The blood was allowed to clot in glass at 37° C. for 60 min and the serum removed and stored at -20° C. until analyzed. Urine was collected over 24 hours at corresponding times for measurement of 2,3-dinor-TXB2 (TX-M) and 2,3-dinor-6-keto-PGF1a (PGI-M), major enzymatic metabolites of TXA2 and PGI2, respectively [Lawson et al., Analyt. Biochem. 150:463 (1985); FitzGerald et al., N. Engl. J. Med. 310: 1065 (1984)]. Excretion of these products is an index of the in vivo formation of their parent compounds [FitzGerald et al., supra; Reilly and Fitzgerald, Blood 69: 180 (1987)]. Serum TXB2 and urinary metabolites were determined by negative ion-chemical ionization, gas chromatography-mass spectrometry (NICI-GCMS) using authentic deuterated standards, as previously described [Braden et al., supra].

[2] = Plasma aspirin and salicylate after dermal aspirin (NICI-GCMS), Example 4; format: in vivo, human; conditions: dermal aspirin 750 mg, single application
Protocol: as §1
Aspirin was applied in a dose of 750 mg on one limb over a 15 min interval. Samples were drawn from the opposite arm. Blood was withdrawn into heparin (10 U/ml final concentration) and potassium fluoride (5% final concentration), the latter to prevent ex vivo metabolism of aspirin by plasma esterases. The plasma was separated immediately and stored at […] until analyzed. Aspirin and its metabolite, salicylic acid, were measured by NICI-GCMS using deuterium-labelled analogues as internal standards, as previously described [Clark, supra].

[3] = test system: PGI2 formation in response to intravenous bradykinin; assay: Urinary PGI-M excretion at rest and after bradykinin infusion, Example 3; format: in vivo, human; conditions: for PGI-M (stim) post ASA: bradykinin-stimulated
Protocol: In an additional 4 subjects, we examined the increase in PGI2 formation in response to intravenous bradykinin prior to and following oral aspirin 75 mg or dermal aspirin 750 mg daily for 14 days. The protocol for bradykinin has been described previously [Clark, N.Engl.J.Med 325:1137 (1991)]. Volunteers were admitted after an overnight fast to the Clinical Research Center. Blood samples were obtained for serum TXB2 and the subject asked to void. Through a peripheral vein, 1 liter of normal saline was infused over 1 hour. After a further hour, bradykinin was infused in incremental doses of 100-800 ng/kg/min, each over 15 mm. The infusion was continued at the maximum tolerated dose for a total period of 2 hr. Blood pressure and heart rate were monitored continuously. Urine was collected in separate 2 hr aliquots prior to, during and following the bradykinin infusion.
^1 The excretion of TXM and PGIM before and following dermal aspirin
750 mg/day or oral aspirin 75 mg/day for 10 days. Urine samples were
collected over 2 hr before (rest) and following the administration of […]

skin = assay: Skin reactions and histology after dermal aspirin; format: in vivo, human
gastric mucosa = conditions: cited from earlier work
[4] = test system: pregnancy-induced hypertension and preeclamptic toxemia; conditions: daily doses, third trimester, women at high risk; cited from earlier work
platelet cyclooxygenase = assay: Serum TXB2 during and after dermal aspirin (index of platelet cyclooxygenase); format: in vivo, human
Excerpt: In studying the effects of the methods of the present invention platelet cyclooxygenase activity was used as a measure of aspirin bioavailability, in addition to plasma drug levels. […] Inhibition of urinary TX-M followed a similar pattern. TX-M is a major enzymatic metabolite of TXB2 and its excretion is an index of TXA2 biosynthesis in vivo. In contrast, the vehicle alone had no effect on serum TXB2 or urinary TX-M. Following withdrawal of therapy, serum TXB2 and TX-M recovered gradually over a period of days. This is consistent with inhibition of platelet cyclooxygenase in vivo. As the enzyme is inhibited irreversibly, recovery of platelet TXA2 biosynthesis parallels the formation of new platelets, a process that has a half-life of 5 days.
as §2, §3

[5] = patients with rheumatic diseases

## CC(=O)Oc1ccccc1C(=O)O [aspirin, acetyl salicylic acid]
PGI2 synthesis; 20 mg/day for 1 week, atherosclerotic patients
  Inhibition of PGI2 synthesis, arterial and venous tissue: 50%
PGI2 synthesis; approximately 40 mg/day
  Urinary PGI2 metabolites / prostacyclin biosynthesis: no significant effect on prostacyclin biosynthesis
PGI2 synthesis; equally low doses (about 40 mg/day)
  Reduction of PGI2 synthesis, arterial and venous tissue: 50%
PGI2 synthesis; oral aspirin 75 mg/day
  Bradykinin-stimulated PGI2 formation: abolished
Thromboxane synthesis; approximately 40 mg/day
  Thromboxane-B2 synthesis in vitro and urinary 2,3-dinor-thromboxane-B2: inhibit thromboxane-B2 synthesis in vitro and to reduce the urinary excretion of 2,3-dinor-thromboxane-B2
Thromboxane synthesis; approximately 1,000 mg/day
  TXA2 and PGI2 synthesis: inhibits both TXA2 and PGI2 synthesis
Thromboxane synthesis; low doses, women at risk for pregnancy-induced hypertension
  Maternal and neonatal thromboxane: selectively suppress maternal thromboxane levels, but only partially suppressed neonatal thromboxane
[1]; oral aspirin 75 mg, read-out: Levels following oral aspirin
  Cmax: 1000 to 2000 ng/mL
[1]; oral aspirin 162 mg, read-out: Peak plasma aspirin level
  Cmax: 1300 ng/mL
[1]; oral aspirin 325 mg, read-out: Peak plasma aspirin level
  Cmax: 2000 ng/mL
TXA2 biosynthesis; dermal aspirin 750 mg/day
  Urinary TX-M excretion, 8 days following drug withdrawal: 65±9 % of pretreatment value
TXA2 biosynthesis; dermal aspirin 750 mg/day, n=5, p=0.002, baseline 498±76 pg/mg creatinine
  Urinary TX-M excretion, day 10: 32±7 % of baseline
TXA2 biosynthesis; dermal aspirin 250 and 750 mg/day
  Urinary TX-M excretion response: dose dependent reduction in the urinary excretion of TX-M
[2]
  Plasma aspirin up to three hours: barely detectable
[2]; human, plasma, topical or ocular
  concentration at 24 h: 4 ± 3 ng/mL
[2]; human, plasma, topical or ocular, read-out: Plasma aspirin, about 3 h (peak)
  Cmax: 237 ± 114 ng/mL
[2]; human, plasma, topical or ocular, read-out: Plasma aspirin, six hours
  concentration at 6 h: 52 ± 14 ng/mL
[3]; Dermal aspirin 750 mg/day, PT 1, pre ASA 163
  PGI-M (rest) post ASA: 138
[3]; Dermal aspirin 750 mg/day, PT 2, pre ASA 105
  PGI-M (rest) post ASA: 149
[3]; Oral aspirin 75 mg/day, PT 1, pre ASA 104
  PGI-M (rest) post ASA: 63
[3]; Oral aspirin 75 mg/day, PT 2, pre ASA 200
  PGI-M (rest) post ASA: 96
[3]; Dermal aspirin 750 mg/day, PT 1, pre ASA 1520
  PGI-M (stim) post ASA: 1553
[3]; Dermal aspirin 750 mg/day, PT 2, pre ASA 559
  PGI-M (stim) post ASA: 601
[3]; Oral aspirin 75 mg/day, PT 1, pre ASA 433
  PGI-M (stim) post ASA: 173
[3]; Oral aspirin 75 mg/day, PT 2, pre ASA 340
  PGI-M (stim) post ASA: 132
[3]; dermal aspirin 750 mg/day
  Resting and bradykinin-stimulated PGI-M excretion: PGI2 formation in response to bradykinin infusion was also unaltered; also recorded: largely unaltered; also recorded: had not effect on
[3]; oral aspirin 75 mg/day
  Resting and bradykinin-stimulated PGI-M excretion: suppressed basal and bradykinin-stimulated PGI-M excretion; also recorded: decrease in urinary PGI-M at rest and following stimulation with bradykinin
skin; dermal aspirin
  Subjects with skin reactions, including erythema and peeling: 30 % of subjects
skin; dermal, alternate day, up to 8 weeks
  Skin reactions with alternate day application: without reactions for up to 8 weeks
skin; one subject, 10 days, 250 mg/day
  Skin histology: no histological changes
Gastric mucosa; applied topically to gastrointestinal tissue
  Gastric mucosa damage, occult bleeding: damages gastric mucosa and induces occult gastrointestinal bleeding
Gastric mucosa; intravenous/parenteral vs oral
  Effects on gastric mucosa: less pronounced with parenteral than with oral administration
Gastric mucosa; oral diluted solutions vs similar doses in tablet form
  Bleeding: considerably less bleeding than similar doses in tablet form
Gastric mucosa; [5]
  Erythema of the gastric mucosa: approximately 80 % of patients
  Gastric erosions: approximately 40 % of patients
  Gastric ulcer: 15 % of patients
[4]
  Incidence of pregnancy-induced hypertension and preeclamptic toxemia: significantly reduce the incidence of pregnancy-induced hypertension and preeclamptic toxemia
Platelet cyclooxygenase; aspirin absorbed through the skin
  Inhibition of platelet cyclooxygenase: marked and selective inhibition of platelet cyclooxygenase
Platelet cyclooxygenase; dermal aspirin 250 mg/day
  Serum TXB2 recovery, day 8 after withdrawal: 93±7 % of baseline
Platelet cyclooxygenase; dermal aspirin 250 mg/day, n=4, p<0.01
  Serum TXB2 (fall in), day 10: 55±11%
Platelet cyclooxygenase; dermal aspirin 750 mg/day
  Serum TXB2 recovery, day 8 after withdrawal: 65±9 % of baseline
Platelet cyclooxygenase; dermal aspirin 750 mg/day, n=6
  Serum TXB2 response: progressive reduction in serum TXB2 in all but one of the volunteers
Platelet cyclooxygenase; dermal aspirin 750 mg/day, n=5 (one non-responder excluded), p=0.003
  Serum TXB2, day 10 of application: 5±3 % of baseline
Platelet cyclooxygenase; dermal aspirin, subjects selected for pharmacokinetics
  Decrease in serum TXB2 in the subjects of Example 4: > 90%
Platelet cyclooxygenase; dermal, highest dose, 10 days
  Maximum inhibition of platelet cyclooxygenase, as measured by serum TXB2: exceeded 95%
